Residues, ends and D or L forms follow the SMILES beside them. *: point of attachment. Octanoyl = CCCCCCCC(=O)*

For assay [1], the target named is T1, Growth hormone secretagogue receptor type 1 (Homo sapiens, UniProt Q92847). In words: Functional potency measured as intracellular calcium elevation in Hek-293 cells expressing hGHSR1a. The format is cell-based, HEK293. Background: Calcium assays in cells follow changes in intracellular calcium, usually with a dye or a luminescent sensor.
Assay [2] deals with T1, Growth hormone secretagogue receptor type 1. In words: Binding affinity towards human Growth hormone secretagogue receptor type 1 using competitive binding assay with radiolabeled [35S]-MK-0677 expressed as IC50.

T1 sequence (Q92847 whole entry): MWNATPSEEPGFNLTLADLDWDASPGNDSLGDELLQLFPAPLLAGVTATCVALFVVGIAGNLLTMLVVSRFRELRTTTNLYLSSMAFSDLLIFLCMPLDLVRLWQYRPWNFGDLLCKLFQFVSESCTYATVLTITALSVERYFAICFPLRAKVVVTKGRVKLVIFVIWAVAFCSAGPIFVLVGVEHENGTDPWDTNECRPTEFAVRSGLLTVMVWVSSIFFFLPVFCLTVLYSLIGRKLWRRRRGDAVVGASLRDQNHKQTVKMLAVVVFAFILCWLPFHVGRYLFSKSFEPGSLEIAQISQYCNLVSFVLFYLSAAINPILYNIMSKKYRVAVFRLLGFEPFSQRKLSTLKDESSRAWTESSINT

The EC50 is the midpoint of the concentration-response curve. The term IC50 denotes the midpoint of a concentration-inhibition curve. A lower IC50 goes with higher potency. Take `CCCCCCCC(=O)OC[C@H](NC(=O)C(C)(C)N)C(=O)N1CCC2(CC1)CN(S(C)(=O)=O)c1ccccc12`: the EC50 in assay [1] came to 0.378 µM. In addition, the IC50 in assay [2] came to 0.591 µM.

As for `CCCCCCCC(=O)OC[C@H](NC(=O)[C@H](CO)NC(=O)CN)C(=O)N1CCC2(CC1)CN(S(C)(=O)=O)c1ccccc12`, the EC50 in assay [1] is 0.449 µM. For the same compound, in assay [2], the IC50 was 2.67 µM.

`CCCCCCCC(=O)OC[C@H](NC(=O)CN)C(=O)N[C@@H](CO)C(=O)N[C@@H](Cc1ccccc1)C(=O)O` (H-GS(Octanoyl)SF-OH): the EC50 in assay [1] came out at 0.072 µM. The same compound yielded an IC50 in assay [2] of 0.889 µM.

Turning to `CS(=O)(=O)N1CC2(CCN(C(=O)[C@@H](COCc3ccccc3)NC(=O)[C@H](CO)NC(=O)CN)CC2)c2ccccc21`, the EC50 in assay [1] came out at 0.00795 µM. In assay [2], this compound displayed an IC50 of 0.0362 µM.

With `CS(=O)(=O)N1CC2(CCN(C(=O)[C@@H](COCc3ccccc3)NC(=O)[C@@H](N)CO)CC2)c2ccccc21`, the EC50 in assay [1] is 0.0692 µM. This compound had an IC50 in assay [2] of 0.209 µM.

Take `CCCCCCCC(=O)OC[C@@H](NC(=O)[C@@H](N)CO)C(=O)N1CCC2(CC1)CN(S(C)(=O)=O)c1ccccc12`: the EC50 in assay [1] was 0.432 µM. The same compound showed an IC50 in assay [2] of 0.829 µM.

For the compound `CCCCCCCC(=O)OC[C@@H](NC(=O)[C@H](CO)NC(=O)CN)C(=O)N1CCC2(CC1)CN(S(C)(=O)=O)c1ccccc12`, the EC50 in assay [1] is 0.0682 µM. The compound also showed an IC50 in assay [2] of 0.128 µM.

For the compound `CCCCCCCC(=O)OC[C@@H](NC(=O)C(C)(C)N)C(=O)N1CCC2(CC1)CN(S(C)(=O)=O)c1ccccc12`, the EC50 in assay [1] is 0.0196 µM. The compound further displayed an IC50 in assay [2] of 0.00812 µM.
